SMILES strings stand for the structures.

The text below walks through data of PMC3387026, “Substrate Cooperativity in Marine Luciferases” (PLoS ONE, 2012).

What all share (experiment): bioluminescence (luminometer), light integrated over first […] s
Common to all, as to type: biochemical
Conditions in all cases: Tris-HCl pH 7.5, BSA; varied luciferin; O2 co-substrate

Experiment [1] concerns the target T1, GLuc (Gaussia princeps (in: crustaceans), UniProt Q9BLZ2, M60L/M127L).
T1 construct: amino-terminal His tag, expressed in E. coli SHuffle, nickel-purified

Experiment [2] addresses T2, RLuc (Renilla reniformis, UniProt P27652).
T2 construct: His-tagged, expressed in NEB T7 Express cells, nickel-purified; 37 kDa monomer
T2 sequence (P27652 1-311): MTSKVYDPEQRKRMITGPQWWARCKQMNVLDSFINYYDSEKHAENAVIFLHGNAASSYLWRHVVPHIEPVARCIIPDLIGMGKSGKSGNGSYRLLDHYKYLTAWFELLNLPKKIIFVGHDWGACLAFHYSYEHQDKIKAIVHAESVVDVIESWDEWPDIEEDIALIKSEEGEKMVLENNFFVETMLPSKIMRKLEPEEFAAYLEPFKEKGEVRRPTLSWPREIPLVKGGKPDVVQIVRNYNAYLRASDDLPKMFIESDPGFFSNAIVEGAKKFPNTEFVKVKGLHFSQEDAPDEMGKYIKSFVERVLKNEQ

Experiment [3] deals with T3, GLuc (Gaussia princeps (in: crustaceans), UniProt Q9BLZ2).
T3 construct: amino-terminal His tag, expressed in E. coli SHuffle, nickel-purified
T3 sequence (Q9BLZ2 entry or part of it): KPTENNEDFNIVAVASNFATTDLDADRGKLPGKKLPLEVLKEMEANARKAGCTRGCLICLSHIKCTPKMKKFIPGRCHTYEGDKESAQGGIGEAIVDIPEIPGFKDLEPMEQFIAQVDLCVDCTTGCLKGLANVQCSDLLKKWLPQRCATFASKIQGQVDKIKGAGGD

T1 sequence (Q9BLZ2 entry or part of it M60L/M127L): as the sequence (Q9BLZ2 entry or part of it) above, with M43L, M110L counted along it

As to `Oc1ccc(Cc2nc3c(Cc4ccccc4)nc(-c4ccc(O)cc4)cn3c2O)cc1` [coelenterazine], the “bioluminescence (luminometer), light integrated over first 10 s” value in experiment [1] is “GLuc, MLuc and the variant GLuc M43L/M110L of Welsh et al”; in experiment [2], “binding a single molecule of coelenterazine is sufficient for catalysis”; in experiment [3], “positive cooperative response of the GLuc activity with respect to coelenterazine”.
